Drawing on patent publication US20250206724A1, “SUBSTITUTED 3-AMINO INDAZOLE DERIVATIVES AS KINASE INHIBITORS” (NERVIANO MEDICAL SCIENCES S.R.L., priority 2022, published 2025), this text covers DC50 for 33 compounds.

Structures are written as SMILES. Structures can show the parent of a compound that is named as a salt.

In this experiment the target is T1, CDK11A (Homo sapiens, UniProt Q9UQ88).
T1 sequence (Q9UQ88 346-783): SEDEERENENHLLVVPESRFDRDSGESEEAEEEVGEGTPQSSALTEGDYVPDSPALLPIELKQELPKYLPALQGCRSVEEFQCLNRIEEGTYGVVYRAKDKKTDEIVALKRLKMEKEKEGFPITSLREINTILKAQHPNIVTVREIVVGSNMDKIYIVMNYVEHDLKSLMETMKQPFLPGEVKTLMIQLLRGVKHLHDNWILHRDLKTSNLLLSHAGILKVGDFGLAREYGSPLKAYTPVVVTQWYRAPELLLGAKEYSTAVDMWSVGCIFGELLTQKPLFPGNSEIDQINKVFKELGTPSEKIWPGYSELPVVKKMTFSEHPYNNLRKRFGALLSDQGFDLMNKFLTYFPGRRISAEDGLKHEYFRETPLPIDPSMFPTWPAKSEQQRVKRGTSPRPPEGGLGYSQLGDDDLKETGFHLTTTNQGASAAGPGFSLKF
To be noted: displacement of SNS-032-Atto590 probe (0.002 μM) from CDK11A-p58 (0.032 uM), fluorescence polarization. In general terms: In fluorescence polarisation assays a small probe gives low polarisation when free and higher when bound to something large.
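Note: compound preincubated 30 min with CDK11A-p58, then probe added and polarization (mP) read 15 min later, 0% displacement is probe plus enzyme, 100% is probe alone.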

Procedure: Biochemical Kinase Inhibition Assay on CDK11 in Displacement Assay Format
Displacement Assay Format
Fluorescence Polarization (FP) experiments were carried out at room temperature using no-binding black 384-well microplates (Corning, NY), in 50 mM Tris HCl, pH 8, 10 mM MgCl2, 1 mM DTT, 1 mM CHAPS in a final volume of 60 μl. The plate reader was the Pherastar microplate reader (BMG). Polarization values were read using excitation and emission wavelengths of 590 and 675 nm, respectively. All FP values are expressed as mP units.
Compounds were 4-folds serially diluted in 100% DMSO and added directly to the CDK11A-p58 solution using the pin tool (V & P Scientific): 0.2 ul of the different compound concentrations in 20 ul of enzyme solution. After an incubation of 30 minutes at r.t., 40 ul of probe solution were added. […] The Pherastar reading is performed after 15 minutes of all components incubation. For each assay, high controls (equivalent to 0% displacement) contain probe, CDK11A-p58, and 0.33% DMSO, whereas low controls (equivalent to 100% displacement) contain only probe and 0.33% DMSO. Controls are used for the Z′ and signal to background evaluation.
The data per each molecule are analyzed by Prism SW or an internally customized version of the SW package “Assay Explorer” which provides sigmoidal fittings of the ten-dilution curves for DC50 determination using a 4 parameters logistic equation:
where x is the logarithm of the inhibitor concentration, y is the response; y starts at bottom and goes to top with a sigmoid shape.

`COC(=O)c1ccc(Cl)c(-c2ccc3[nH]nc(NC(=O)[C@@H]4CCCNC4)c3c2)c1` [cpd 29, Methyl 4-chloro-3-(3-{[(3R)-piperidin-3-ylcarbonyl]amino}-1H-indazol-5-yl)benzoate hydrochloride] had a DC50 of 24 nM.

As to `O=C(Nc1n[nH]c2ccc(-c3ccc(F)cc3F)cc12)[C@@H]1CCCNC1` [cpd 30, (3R)-N-[5-(2,4-Difluorophenyl)-1H-indazol-3-yl]piperidine-3-carboxamide hydrochloride], the DC50 turned out to be 38 nM.

As to `COc1ccc(-c2ccc3[nH]nc(NC(=O)[C@@H]4CCCNC4)c3c2)c(C(F)(F)F)c1` [cpd 31, (3R)-N-{5-[4-Methoxy-2-(trifluoromethyl)phenyl]-1H-indazol-3-yl}piperidine-3-carboxamide hydrochloride], the DC50 is 94 nM.

`Nc1ccc(Cl)c(-c2ccc3[nH]nc(NC(=O)[C@@H]4CCCNC4)c3c2)c1` [cpd 34, (3R)-N-[5-(5-Amino-2-chlorophenyl)-1H-indazol-3-yl]piperidine-3-carboxamide dihydrochloride] gave a DC50 of 19 nM.

In turn, `O=C(Nc1n[nH]c2ccc(-c3cc(F)ccc3F)cc12)[C@@H]1CCCNC1` [cpd 35, (3R)-N-[5-(2,5-Difluorophenyl)-1H-indazol-3-yl]piperidine-3-carboxamide hydrochloride] had a DC50 of 35 nM.

`Cc1ccc(-c2ccc3[nH]nc(NC(=O)[C@@H]4CCCNC4)c3c2)c(C(F)(F)F)c1` [cpd 36, (3R)-N-{5-[4-Methyl-2-(trifluoromethyl)phenyl]-1H-indazol-3-yl}piperidine-3-carboxamide hydrochloride] returned a DC50 of 65 nM.

For the compound `COC(=O)c1ccc(Cl)c(-c2ccc3[nH]nc(NC(=O)[C@@H]4CCNC4)c3c2)c1` [cpd 37, Methyl 4-chloro-3-(3-{[(3R)-pyrrolidin-3-ylcarbonyl]amino}-1H-indazol-5-yl)benzoate hydrochloride], the DC50 was determined as 26 nM.

As for `CC(=O)c1ccc(Cl)c(-c2ccc3[nH]nc(NC(=O)[C@@H]4CCNC4)c3c2)c1` [cpd 38, (3R)-N-[5-(5-Acetyl-2-chlorophenyl)-1H-indazol-3-yl]pyrrolidine-3-carboxamide hydrochloride], the DC50 was found to be 16 nM.

`CNC(=O)c1ccc(Cl)c(-c2ccc3[nH]nc(NC(=O)[C@@H]4CCNC4)c3c2)c1` [cpd 39, (3R)-N-{5-[2-Chloro-5-(methylcarbamoyl)phenyl]-1H-indazol-3-yl}pyrrolidine-3-carboxamide hydrochloride] registered a DC50 of 44 nM.

`COC(=O)c1ccc(C#N)c(-c2ccc3[nH]nc(NC(=O)[C@@H]4CCCNC4)c3c2)c1` [cpd 40, Methyl 4-cyano-3-(3-{[(3R)-piperidin-3-ylcarbonyl]amino}-1H-indazol-5-yl)benzoate hydrochloride] gave a DC50 of 45 nM.

In turn, `O=C(Nc1n[nH]c2ccc(-c3cc(O)ccc3Cl)cc12)[C@@H]1CCCNC1` [cpd 41, (3R)-N-[5-(2-Chloro-5-hydroxyphenyl)-1H-indazol-3-yl]piperidine-3-carboxamide hydrochloride] came in with a DC50 of 33 nM.

Turning to `COC(=O)c1cc(-c2ccc3[nH]nc(NC(=O)[C@@H]4CCCNC4)c3c2)c(Cl)cc1Cl` [cpd 42, Methyl 2,4-dichloro-5-(3-{[(3R)-piperidin-3-ylcarbonyl]amino}-1H-indazol-5-yl)benzoate hydrochloride], the DC50 amounted to 57 nM.

`CCC(=O)c1ccc(Cl)c(-c2ccc3[nH]nc(NC(=O)[C@@H]4CCCNC4)c3c2)c1` [cpd 43, (3R)-N-[5-(2-Chloro-5-propanoylphenyl)-1H-indazol-3-yl]piperidine-3-carboxamide hydrochloride]: the DC50 is 19 nM.

`O=C(Nc1n[nH]c2ccc(-c3ccc(C(F)(F)F)cc3Cl)cc12)[C@@H]1CCCNC1` [cpd 44, (3R)-N-{5-[2-Chloro-4-(trifluoromethyl)phenyl]-1H-indazol-3-yl}piperidine-3-carboxamide hydrochloride]: the DC50 stood at 156 nM.

The compound `O=C(Nc1n[nH]c2ccc(-c3ccc(Cl)cc3C(F)(F)F)cc12)[C@@H]1CCCNC1` [cpd 45, (3R)-N-{5-[4-Chloro-2-(trifluoromethyl)phenyl]-1H-indazol-3-yl}piperidine-3-carboxamide hydrochloride] registered a DC50 of 88 nM.

Compound `O=C(Nc1n[nH]c2ccc(-c3cc(F)ccc3C(F)(F)F)cc12)[C@@H]1CCCNC1` [cpd 46, (3R)-N-{5-[5-Fluoro-2-(trifluoromethyl)phenyl]-1H-indazol-3-yl}piperidine-3-carboxamide hydrochloride] returned a DC50 of 37 nM.

In turn, `O=C(Nc1n[nH]c2ccc(-c3ccccc3Cl)cc12)[C@@H]1CCCNC1` [cpd 47, (3R)-N-[5-(2-Chlorophenyl)-1H-indazol-3-yl]piperidine-3-carboxamide hydrochloride] came in with a DC50 of 38 nM.

Compound `CC(C)c1ccc(Cl)c(-c2ccc3[nH]nc(NC(=O)[C@@H]4CCCNC4)c3c2)c1` [cpd 48, (3R)-N-{5-[2-Chloro-5-(propan-2-yl)phenyl]-1H-indazol-3-yl}piperidine-3-carboxamide hydrochloride] gave a DC50 of 310 nM.

Turning to `O=C(Nc1n[nH]c2ccc(-c3ccccc3)cc12)[C@@H]1CCCNC1` [cpd 49, (3R)-N-(5-Phenyl-1H-indazol-3-yl)piperidine-3-carboxamide hydrochloride], the DC50 was determined as 78 nM.

As for `COC(=O)c1cc(-c2ccc3[nH]nc(NC(=O)[C@@H]4CCCNC4)c3c2)c(F)cc1F` [cpd 50, Methyl 2,4-difluoro-5-(3-{[(3R)-piperidin-3-ylcarbonyl]amino}-1H-indazol-5-yl)benzoate hydrochloride], the DC50 stood at 164 nM.

Compound `O=C(Nc1n[nH]c2ccc(-c3cc(F)ccc3Cl)cc12)[C@@H]1CCCNC1` [cpd 52, (3R)-N-[5-(2-Chloro-5-fluorophenyl)-1H-indazol-3-yl]piperidine-3-carboxamide hydrochloride] showed a DC50 of 42 nM.

For the compound `N#Cc1ccc(C#N)c(-c2ccc3[nH]nc(NC(=O)[C@@H]4CCCNC4)c3c2)c1` [cpd 53, (3R)-N-[5-(2,5-Dicyanophenyl)-1H-indazol-3-yl]piperidine-3-carboxamide hydrochloride], the DC50 worked out at 30 nM.

For `COC(=O)c1cc(-c2ccc3[nH]nc(NC(=O)[C@@H]4CCNC4)c3c2)c(Cl)cc1N` [cpd 54, Methyl 2-amino-4-chloro-5-(3-{[(3R)-pyrrolidin-3-ylcarbonyl]amino}-1H-indazol-5-yl)benzoate dihydrochloride], the DC50 was found to be 102 nM.

`CNC(=O)c1ccc(C#N)c(-c2ccc3[nH]nc(NC(=O)[C@@H]4CCCNC4)c3c2)c1` [cpd 55, (3R)-N-{5-[2-Cyano-5-(methylcarbamoyl)phenyl]-1H-indazol-3-yl}piperidine-3-carboxamide hydrochloride] yielded a DC50 of 90 nM.

`CC(C)OC(=O)c1ccc(Cl)c(-c2ccc3[nH]nc(NC(=O)[C@@H]4CCCNC4)c3c2)c1` [cpd 56, Propan-2-yl 4-chloro-3-(3-{[(3R)-piperidin-3-ylcarbonyl]amino}-1H-indazol-5-yl)benzoate hydrochloride] registered a DC50 of 100 nM.

As to `COC(=O)c1ccc(Cl)c(-c2ccc3[nH]nc(NC(=O)[C@@H]4CCCNC4)c3c2)c1Cl` [cpd 57, Methyl 2,4-dichloro-3-(3-{[(3R)-piperidin-3-ylcarbonyl]amino}-1H-indazol-5-yl)benzoate hydrochloride], the DC50 came out at 45 nM.

The compound `O=C(Nc1n[nH]c2ccc(-c3cc(-c4ncon4)ccc3Cl)cc12)[C@@H]1CCCNC1` [cpd 58, (3R)-N-{5-[2-Chloro-5-(1,2,4-oxadiazol-3-yl)phenyl]-1H-indazol-3-yl}piperidine-3-carboxamide dihydrochloride] came in with a DC50 of 20 nM.

Turning to `O=C(Nc1n[nH]c2ccc(-c3cc(-c4nnco4)ccc3Cl)cc12)[C@@H]1CCCNC1` [cpd 59, (3R)-N-{5-[2-Chloro-5-(1,3,4-oxadiazol-2-yl)phenyl]-1H-indazol-3-yl}piperidine-3-carboxamide trifluoroacetate], the DC50 came out at 57 nM.

Consider `Cc1nc(-c2ccc(Cl)c(-c3ccc4[nH]nc(NC(=O)[C@@H]5CCCNC5)c4c3)c2)no1` [cpd 60, (3R)-N-{5-[2-Chloro-5-(5-methyl-1,2,4-oxadiazol-3-yl)phenyl]-1H-indazol-3-yl}piperidine-3-carboxamide dihydrochloride], for which the DC50 was 163 nM.

For the compound `N#Cc1ccc(Cl)c(-c2ccc3[nH]nc(NC(=O)C4CCNCC4)c3c2)c1` [cpd 61, N-[5-(2-Chloro-5-cyanophenyl)-1H-indazol-3-yl]piperidine-4-carboxamide hydrochloride], the DC50 was 139 nM.

`CN(C)C1CC(C(=O)Nc2n[nH]c3ccc(-c4ccc(O)cc4Cl)cc23)C1` (stereo not drawn) [cpd 62, N-[5-(2-Chloro-4-hydroxyphenyl)-1H-indazol-3-yl]-3-(dimethylamino)cyclobutanecarboxamide hydrochloride]: the DC50 was 148 nM.

As to `CNC1CC(C(=O)Nc2n[nH]c3ccc(-c4ccc(O)cc4Cl)cc23)C1` (stereo not drawn) [cpd 63, N-[5-(2-Chloro-4-hydroxyphenyl)-1H-indazol-3-yl]-3-(methylamino)cyclobutanecarboxamide hydrochloride], the DC50 stood at 48 nM.

Turning to `CN1CCC(C(=O)Nc2n[nH]c3ccc(-c4c(F)cccc4Cl)cc23)CC1` [cpd 64, N-[5-(2-Chloro-6-fluorophenyl)-1H-indazol-3-yl]-1-methylpiperidine-4-carboxamide hydrochloride], the DC50 was found to be 66 nM.
